Source: doi:10.64898/2025.12.07.692800v1 (biorxiv, 2025)

Tests used:
[1] = biological target: T1, LAG-3-His (recombinant human LAG-3; discussed as LAG-3 D1) (Homo sapiens, UniProt P18627); test: MST; type: binding
T1 sequence (P18627 23-450 limits assumed): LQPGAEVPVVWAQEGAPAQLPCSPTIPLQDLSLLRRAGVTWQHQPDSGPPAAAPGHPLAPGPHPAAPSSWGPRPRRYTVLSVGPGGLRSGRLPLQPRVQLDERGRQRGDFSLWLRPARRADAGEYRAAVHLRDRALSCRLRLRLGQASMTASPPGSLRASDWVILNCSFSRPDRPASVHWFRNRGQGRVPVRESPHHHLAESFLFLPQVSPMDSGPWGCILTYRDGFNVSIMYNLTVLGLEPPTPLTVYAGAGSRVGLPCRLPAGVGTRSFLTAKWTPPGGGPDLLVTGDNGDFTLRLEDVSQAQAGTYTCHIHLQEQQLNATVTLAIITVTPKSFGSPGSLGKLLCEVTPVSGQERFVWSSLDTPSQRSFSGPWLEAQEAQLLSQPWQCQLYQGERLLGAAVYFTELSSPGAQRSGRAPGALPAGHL

[2] = biological target: T2, LAG-3 / MHCII (Revvity HTRF Human LAG-3 / MHCII Binding Kit) (Homo sapiens, UniProt P18627); test: HTRF
T2 sequence (P18627 23-450 limits assumed): T1 sequence (P18627 23-450 limits assumed)

Kd [1]: 59.2 µM
EC50 [2]: 42.9 µM
SMILES: N#Cc1ccnnc1N1CCCC(c2c[nH]c3ncccc23)C1 (centres unmarked) [N05]
